This is an account of results in US8679478B2, “Methods of lysosomal storage disease therapy” (Duke University, priority 2010, dated 2014).

Common to all, as to type: in vivo, mouse
The test system of data set [1] is GAA-KO mice. As to the kind of experiment: Glycogen content in muscles, ERT plus clenbuterol or albuterol. The conditions noted are these: ERT plus albuterol 30 μg/ml drinking water. The procedure: FIG. 8A-8C depicts increased GAA uptake and increased glycogen clearance in GAA-KO mice following clenbuterol treatment and ERT. […] GAA-KO mice were administered four weekly doses of rhGAA (20 mg/kg), and treated with clenbuterol (n=6) or untreated (n=5). […] Mean+/−standard deviation are shown. Statistically significant differences indicated (*=p<0.05; **=p<0.01).
GAA-KO mice were treated with weekly rhGAA (20 mg/kg): with medium clenbuterol, […] (n=6), with low clenbuterol, 1.3 mg/ml (n=6), with albuterol 30 mg/ml (n=4), or without drug treatment (n=3). Drugs were administered in the drinking water. Mean+/−s.d. shown. Statistically significant differences indicated (*=p<0.05; **=p<0.01).
(§1) For in vivo analysis of AAV vectors, stocks were administered intravenously (via the retroorbital sinus) in 3 month-old and 15 month-old GAA-KO mice, and to 3 month-old tolerant GAA-KO and DKO mice. Clenbuterol (30 μg/ml) was administered to groups of 3 month-old vector-injected and mock-injected male GAA-KO mice in drinking water for 28 days. At the indicated time points post-injection, tissue samples were obtained and processed as described below. All animal procedures were done in accordance with Duke University Institutional Animal Care and Use Committee-approved guidelines. GAA activity and glycogen content were analyzed essentially as described (Sun et al., Mol. Ther., 2005, 11:889-898; Sun et al., Mol. Ther., 2005, 11: 57-65). Rotarod testing was performed essentially as described (Sun, B. D. et al. 2005). Western blotting of hGAA was performed essentially as described (Amalfitano et al., Proc. Natl. Acad. Sci. USA, 1999, 96: 8861-8866) using the hGAA monoclonal antibody (courtesy of Genzyme Corp., Framingham, Mass.) and the CI-MPR antibody (catalog number GTX28093; Gene Tex, Irvine, Calif.).
The efficacy from gene therapy was increased by β2 agonist stimulation from clenbuterol treatment, and this benefit might be expected to affect ERT in Pompe disease, as well. Therefore, groups of 3 month-old GAA-KO mice were treated with four weekly doses of rhGAA (20 mg/kg), with or without concurrent clenbuterol treatment.

The subject of data set [2] is immune tolerant GAA-KO mice. Put plainly: Rotarod testing, ERT plus β2 agonist (Example 6). To be noted: one week later (than 4 weeks); albuterol 30 mg/l drinking water plus ERT v. ERT alone. How it is done: GAA-KO mice were administered four weekly doses of rhGAA (20 mg/kg), and treated with medium dose clenbuterol (n=7), albuterol (n=4) or untreated (n=6 or 3). […] Mean+/−standard deviation are shown. P values indicate statistically significant differences (lines).
Two β2 agonists were evaluated in combination with ERT, clenbuterol and albuterol. The dose of clenbuterol was reduced 5-fold from the concentration used in Example 4, to 6 mg/l in drinking water, while albuterol was evaluated at the higher dose (30 mg/l in drinking water). Groups of 3 month-old immune tolerant GAA-KO mice (Raben et al., Human Mol. Genet., 2001, 10:2039-2047) were treated with four weekly doses of rhGAA (20 mg/kg body weight), with or without concurrent β2 agonist treatment.
Mice were sacrificed 7 days after the last injection. Selected tissues were collected for GAA enzyme activity and glycogen content analyses. […] GAA activity and glycogen content analyses, Rotarod testing, and Western blot detection of CI-MPR was performed essentially as described (Koeberl et al., Mol. Genet. Metab., 2011, 103:107-112. Wire hang testing was performed with a 0.5 cm mesh hardware cloth fixed to an 8 by 10 inch frame. Mice were placed on the wire mesh, which was slowly inverted 6 inches over a cage containing paper bedding. The latency, or time until the mouse fell into the cage, was recorded.

Data set [3] has as its system immune tolerant GAA-KO mice. Put plainly: GAA activity in tissues, ERT plus β2 agonist (Example 6). The procedure:
(§2) Male GAA-KO mice were administered four weekly doses of 20 mg/kg body weight of rhGAA and sacrificed one week following the last injection. Groups of mice were treated with clenbuterol (n=6), albuterol (n=4) or untreated (n=6). Mice were euthanized for tissue analysis 5 weeks after initiation of ERT.
(§3) Cerebral and cerebellar hemispheres were analyzed 5 weeks following the initiation of ERT. Groups of mice were treated with clenbuterol (n=6), albuterol (n=4) or untreated (n=6).
(§4) Two β2 agonists were evaluated in combination with ERT, clenbuterol and albuterol. […] Groups of 3 month-old immune tolerant GAA-KO mice (Raben et al., Human Mol. Genet., 2001, 10:2039-2047) were treated with four weekly doses of rhGAA (20 mg/kg body weight), with or without concurrent β2 agonist treatment.
(§5) Mice were sacrificed 7 days after the last injection. Selected tissues were collected for GAA enzyme activity and glycogen content analyses. All animal procedures were done in accordance with Duke University Institutional Animal Care and Use Committee-approved guidelines. GAA activity and glycogen content analyses, Rotarod testing, and Western blot detection of CI-MPR was performed essentially as described (Koeberl et al., Mol. Genet. Metab., 2011, 103:107-112. Wire hang testing was performed with a 0.5 cm mesh hardware cloth fixed to an 8 by 10 inch frame. Mice were placed on the wire mesh, which was slowly inverted 6 inches over a cage containing paper bedding. The latency, or time until the mouse fell into the cage, was recorded.

Data set [4] concerns immune tolerant GAA-KO mice. As to the kind of experiment: Glycogen content in tissues, ERT plus β2 agonist (Example 6). The procedure:
as §2, §3, §4, §5

The subject of data set [5] is immune tolerant GAA-KO mice. Put plainly: Histopathology of brain, glycogen staining. The conditions noted are these: cerebellum; in comparison with ERT alone. How it is done: Histopathology was performed to examine brain involvement, and glycogen accumulations were detected in the cerebellum with ERT alone. Albuterol and clenbuterol each reduced the glycogen staining in the cerebellum, in comparison with ERT alone.

The subject of data set [6] is CI-MPR-KO/GAA-KO (DKO) mice v. GAA-KO (Pompe disease) mice. As to the kind of experiment: GAA enzyme activity in tissues after rhGAA administration, DKO v. GAA-KO mice. To be noted: for GAA decrease in DKO v. GAA-KO (%): rhGAA four weekly doses, dose not given. How it is done:
(§6) CI-MPR-KO mice were generated using a muscle-specific promoter (muscle creatine kinase; CK) and the cre/loxP conditional knock out system essentially as described previously (Wylie et al., Am. J. Pathol., 2003, 162: 321-328). The muscle-specific CI-MPR-KO mice were crossed with GAA-KO mice to generate muscle specific DKO mice). This mouse colony was subsequently screened to be GAA−/−, M6PR flox/flox and MCK-Cre positive. These DKO mice and age matched Pompe mice were administered four weekly doses of 20 or 100 mg/kg rhGAA and sacrificed 3 days after the last injection. Selected tissues were collected for GAA enzyme activity levels, glycogen content depletion and Western blot analysis. Pompe and DKO mice injected with vehicle were used as controls.
as §1
(§7) To further understand the role of CI-MPR in recombinant human GAA (rhGAA) uptake and glycogen clearance specifically in Pompe disease, muscle-specific CI-MPR-KO mice were crossed with GAA-KO (Pompe disease) mice. The DKO mice were administered four weekly doses of 20 mg/kg and 100 mg/kg body weight of recombinant human rhGAA and sacrificed three days after the last injection to evaluate GAA enzyme levels and glycogen depletion in the target tissues. […]

For data set [7] the test system is unchanged. As to the kind of experiment: Glycogen content in tissues after rhGAA administration, DKO v. GAA-KO mice. The conditions noted are these: rhGAA four weekly doses, dose not given. The procedure:
as §6, §1, §7

A further data set deals with DKO mice. Put plainly: Glycogen clearance after rhGAA in DKO mice. How it is done: as §6, §1
(§8) To further understand the role of CI-MPR in recombinant human GAA (rhGAA) uptake and glycogen clearance specifically in Pompe disease, muscle-specific CI-MPR-KO mice were crossed with GAA-KO (Pompe disease) mice. […]

For data set [8], the system named is GAA-KO mice. As to the kind of experiment: Glycogen clearance after rhGAA in GAA-KO (Pompe) mice. How it is done:
as §6, §1, §8

Regarding `CC(C)(C)NCC(O)c1ccc(O)c(CO)c1` (stereo not drawn) [albuterol], in the data set on GAA-KO mice [1], the “glycogen content of the quadriceps” value is “trend toward decreasing”. The Rotarod latency entry in [2] was “increased latency”. The GAA activity result in data set [3] (cerebellum, 5 weeks after initiation of ERT, clenbuterol p=0.08, albuterol p=0.09) is listed as “trend toward increased GAA activity”; in [3] (tibialis anterior only, albuterol plus ERT v. ERT alone), “increased”. The “GAA activity in tissues with reduced glycogen content” value in data set [3] (β2 agonist plus ERT v. ERT alone) is recorded as “unchanged”. The Glycogen content result in [4] (cerebellum, β2 agonist plus ERT v. ERT alone) is “reduced significantly”; in data set [4] (liver, albuterol plus ERT v. ERT alone), “significantly reduced”; in data set [4] (quadriceps, albuterol plus ERT v. ERT alone), “significantly reduced”. Further, the “glycogen staining (histopathology)” value in [5] is “reduced”.
With “rhGAA: recombinant human acid α-glucosidase used for enzyme replacement therapy (ERT) in Pompe disease”, the “GAA decrease in DKO v. GAA-KO (%)” value in data set [6] (Diaphragm) is reported as 2%; in data set [6] (Gastrocnemius), 72%; in data set [6] (Heart), 47%; in [6] (Quadriceps), 79%; in data set [6] (Triceps), 76%. For the same compound, the “reduced rhGAA uptake in DKO mice as compared with Pompe mice” value in data set [6] (heart, 100 mg/kg rhGAA) is listed as 50%. Besides, in data set [6] (skeletal tissues (quadriceps, triceps, gastrocnemius), 20 and 100 mg/kg), the “rhGAA uptake (enzyme activity) in DKO v. GAA-KO mice” value is reported as “significantly decreased uptake”. The “Glycogen increase in DKO v. GAA-KO (%)” value in data set [7] (Diaphragm) came out at 192%; in data set [7] (Gastrocnemius), 340%; in data set [7] (Heart), 1600%; in data set [7] (Quadriceps), 300%; in data set [7] (Triceps), 425%. The glycogen clearance with DKO mice (DKO mouse heart, rhGAA 100 mg/kg) came to 95%; with DKO mice (heart of DKO mice, rhGAA 20 mg/kg), 7%; in the data set with GAA-KO mice [8] (GAA-KO mouse heart, rhGAA 100 mg/kg), 99%; in the data set with GAA-KO mice [8] (heart of Pompe mice, rhGAA 20 mg/kg), 77%. Besides, the glycogen depletion is on record as 8% with DKO mice (quadriceps of DKO mice, rhGAA 20 mg/kg) and 55% in the data set with GAA-KO mice [8] (quadriceps of GAA-KO mice, rhGAA 20 mg/kg).
